Data from publication PMC4865297, “Macromolecular Crystallography and Structural Biology Databases at NIST” (Journal of Research of the National Institute of Standards …, 2001).

Key:
chorismate lyase = molecular target: T1, chorismate lyase (Escherichia coli, UniProt P26602, C15S/C82S); assay: X-ray crystal structure; format: binding; conditions: both cysteines changed to serine; product complex
T1 construct: gene ubiC; monomer, 164 residues
T1 sequence (P26602 2-165 C15S/C82S): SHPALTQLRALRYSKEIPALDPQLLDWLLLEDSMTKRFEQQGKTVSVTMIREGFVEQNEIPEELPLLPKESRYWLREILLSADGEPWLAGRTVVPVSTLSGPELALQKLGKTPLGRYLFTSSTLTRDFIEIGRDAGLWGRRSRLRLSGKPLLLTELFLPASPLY

[1] = molecular target: T2, catabolite gene activator protein (CAP) (Escherichia coli, UniProt P0ACJ8, A145T); assay: X-ray crystal structure, soak; format: binding; conditions: crystals grown with cAMP soaked in 10 mM adenosine; bound in one subunit; text also prints the variant as Thr144Ala
T2 construct: gene crp; homodimer
T2 sequence (P0ACJ8 2-210 A145T): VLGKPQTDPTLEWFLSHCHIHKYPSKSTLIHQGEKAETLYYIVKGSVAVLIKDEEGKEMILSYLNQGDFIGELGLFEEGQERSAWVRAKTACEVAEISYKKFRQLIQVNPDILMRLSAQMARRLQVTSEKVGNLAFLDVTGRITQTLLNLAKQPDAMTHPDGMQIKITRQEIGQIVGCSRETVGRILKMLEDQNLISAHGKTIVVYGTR

| SMILES | X-ray crystal structure (chorismate lyase) | X-ray crystal structure, soak [1] |
| --- | --- | --- |
| O=C(O)c1ccc(O)cc1 [4-hydroxy benzoate] | the active double Cys-to-Ser variant complexed with product were determined | – |
| Nc1ncnc2c1ncn2[C@@H]1O[C@H](CO)[C@@H](O)[C@H]1O [adenosine] | – | Adenosine was preferentially substituted for cAMP in only one of the two CAP subunits |
